Reference: US9242944B2 (UNIVERSITY OF MARYLAND, BALTIMORE, priority 2013, dated 2016)
“Also recorded” adds a separate entry of the source. Like-named read-outs stand apart in the source and are kept apart here.

Experiments:
[1] = molecular target: T1, c-Myc-Max dimerization (Homo sapiens, UniProt P01106); assay: Co-immunoprecipitation (Co-IP) of c-Myc with Max in HL60 cells; assay type: cell-based
T1 construct: endogenous in cells; host or cells: HL60
Protocol: Co-IP assays were performed essentially as described previously.(23) Briefly, 5×10^6 HL60 cells (>90% viable) in log-phase growth were treated in suspension for 4-6 h with the stated concentration of 3jc48-3. As a negative control, samples exposed to DMSO vehicle only were included and processed in parallel. Treated cells were collected by centrifugation, washed twice in ice-cold PBS and lysed in IP Buffer. 300 μg of cleared lysate was then precipitated with a 1:200 dilution of anti-Max antibody(23) followed by subsequent precipitation with protein G-Sepharose using conditions recommended by the supplier (Santa Cruz Biotechnology, Inc. Santa Cruz, Calif.). The precipitate was washed three times in IP buffer, boiled in running buffer and resolved by 10% SDS-PAGE. After electrotransfer of the proteins to a PVDF membrane (Millipore Corp. Billercica, Mass.), the blot was probed with a 1:1000 dilution of anti-Myc monoclonal antibody (9E10, Santa Cruz Biotechnology, Santa Cruz, Calif.). Blots were developed using a Pierce ECL Plus enhanced chemiluminescence kit according to the directions of the supplier (Thermo-Fisher, Pittsburgh, Pa.).

[2] = molecular target: T2, c-Myc-Max heterodimers (Homo sapiens, UniProt P01106); assay: Electrophoretic mobility shift assay (EMSA) of c-Myc-Max dimerization and DNA binding; details: for inhibition at 100 µM: read-out: % Inhibition of c-Myc-Max Dimerization
T2 construct: c-Myc bHLH-ZIP domain (residues 353-437); His6-TEV protease substrate tag; made in house; host or cells: bacteria (pET151 vector for Myc)
Protocol: The ability of a small-molecule to interfere with c-Myc-Max dimerization is conveniently assessed through the disruption of the c-Myc-Max/DNA ternary complex by an electrophoretic mobility shift assay (EMSA) using fluorescently-labelled DNA, and subsequently quantified by densitometry.(23) Accordingly, a 100-member library was screened for the ability to disrupt the c-Myc-Max dimer.
These were performed essentially as described previously (23). Briefly, Ni^+-agarose-purified His6-tagged c-Myc bHLH-ZIP domain (residues 353-437) was used for all binding assays as was the His6-tagged 151 residue isoform of Max, otherwise referred to as Max(S) (residues 2-151) (21). For each binding reaction, the proteins were allowed to heterodimerize at a concentration of 30 nM each in the presence of 20 nM of a 5′-HEX-tagged double-stranded 22-base pair oligonucleotide 5′-hexachlorofluoresceine-[…]-3′ (SEQ ID NO: 1) containing a consensus c-Myc binding site (CACGTG) and the indicated concentration of small molecule inhibitor. Control reactions contained the same oligonucleotide in the presence of 60 nM of the 160 residue isoform of Max referred to as Max(L) (21). All binding reactions were prepared in a buffer consisting of PBS (pH 7.3), 1 mmol/L EDTA, 0.1% NP40, 5% glycerol, 1 mmol/L DTT, and 0.4 mg/mL bovine serum albumin. Electrophoresis was performed on 8% polyacrylamide/bisacrylamide (80:1) gels in […] (23). Each reaction was run on at least three separate occasions.
EMSAs were performed essentially as described utilizing bacterially-expressed recombinant proteins purified nearly to homogeneity.(23) Experiments with Max homodimers used the His6-tagged 160 amino acid isoform of the protein, termed Max(L), which homodimerizes and binds DNA well. For studies with Myc-Max heterodimers, the His6-tagged 151 residue isoform of Max [Max(S)] was used, which binds DNA well as a heterodimer with Myc but poorly as a homodimer.(23) Recombinant Myc protein, expressed in the pET151 vector, consisted of the His6-TEV protease substrate-tagged 85 amino acid bHLH-ZIP domain. (23) Each protein was purified by Ni-agarose affinity chromatography as previously described. (23) The His6-TEV tag was removed from the Myc protein by TEV protease cleavage followed by re-purification using Ni-agarose affinity chromatography to remove the His6-TEV protease and the cleaved His6-TEV tag as previously described. Binding assays were performed with 30 nM of each protein and 30 nM of a 6-carboxy-2′,4,4′,5′,7,7′-hexachlorofluorescein (HEX)-tagged double-stranded oligonucleotide containing a consensus Myc binding site (IDT, Coralville, Iowa).(23)

[3] = molecular target: T3, Max-Max homodimers (Homo sapiens, UniProt P61244); assay: EMSA of Max-Max homodimerization and DNA binding; details: 50% inhibition of Max-Max dimerization and DNA binding in EMSAs
T3 construct: His6; made in house; host or cells: bacteria

[4] = test system: HL60 cells; assay: Growth inhibition (MTT assay) in HL60 cells; assay type: cell-based, human; details: 10-point serial dilution, quadruplicate; for IC50: read-out: IC50 HL60
Protocol: (§1) These were performed using HL60 human promyelocytic leukemia cells or Daudi Burkitt lymphoma cells essentially as described previously (23). Briefly, cells were seeded into 96 well dishes (5000 cells/well and 10,000 cells/well for HL60 and Daudi cells, respectively). Growth medium consisted of RPMI medium supplemented with Penicillin/Streptomycin, glutamine and 10% fetal bovine serum. The indicated concentrations of each compound were then added and 10-point growth inhibition assays were performed 3-5 days later using the MTT assay. Each point was performed in quadruplicate.
(§2) Daudi Burkitt lymphoma and HL60 promyelocytic leukemia cells were maintained in RPMI medium supplemented with 10% fetal bovine serum.(23) For growth inhibition studies, 3×10^3 cells were seeded in 96 well plates in the presence of serial dilutions of each compound. A total of 10 dilutions, ranging from 0.1 to 50 μM were performed for each compound. Standard MTT assays (23) were used to quantify cell number 3-4 days later and compared to wells exposed to DMSO vehicle only.

[5] = test system: Daudi cells; assay: Growth inhibition (MTT assay) in Daudi cells; assay type: cell-based; details: 10-point serial dilution, quadruplicate; for IC50: read-out: IC50 Daudi
Protocol: as §1, §2

[6] = test system: HL60 cells; assay: Cell cycle analysis (propidium iodide, flow cytometry); assay type: cell-based; details: 24 h
Protocol: Sub-confluent cultures of cells at >90% viability were plated into fresh medium at densities that were typically about 10% of those attained at the point of density arrest. The next day, Myc inhibitors at the stated concentrations were added for 24-48 hr. The cells were then harvested, washed twice in PBS and stained with propidium iodide as previously described(23). Cell cycle analyses were performed on a BD FACSCalibur™ flow cytometer (Becton Dickinson, Inc. Franklin Lakes, N.J.) and analyzed using ModFit LT 3.3 (Verity Software House, Topsham, Me.).

[7] = test system: c-Myc-responsive promoter; assay: Myc reporter gene expression (luciferase) in HeLa cells; assay type: cell-based; details: markedly diminished within 6 h of compound addition
Description: The generic reporter vector pGL4.28(luc2CP/minP/Hygro) (Promega Corp., Madison Wis.), which is specifically designed to reduce anomalous transcription and which contains a highly de-stabilized luciferase reporter was used to assess the effects of Myc inhibitors. […] A control vector containing this same oligonucleotide with mutant E-box sites ([NT] ID NO: 3) was used as a negative control. […] After automated DNA sequencing to confirm the identity of its respective insert, each vector was then separately co-transfected into HeLa cells together with the vector pFR400, which encodes a mutant form of dihydrofolate reductase that facilitates the step-wise amplification of the plasmid and any co-transfected sequences in the presence of increasing concentrations of the folate antagonist methotrexate (MTX). After first selecting for stably transfected cells by growth in hygromycin, the resistant clones were pooled and grown in serial four-fold increasing concentrations of MTX ranging from […]), thus allowing the luciferase signal originating from the first vector to be easily detected above background. No luciferase signal over background values could be obtained in unamplified cells or in amplified cells transfected with the mutant E-box-containing vector. […]

[8] = 50% inhibition of c-Myc-Max dimerization and DNA binding in EMSAs

T2 sequence (P01106 368-452, one chain of several): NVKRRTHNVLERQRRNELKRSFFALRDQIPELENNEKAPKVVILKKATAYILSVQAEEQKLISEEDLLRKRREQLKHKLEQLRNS
T1 sequence (P01106 16-454 limits assumed): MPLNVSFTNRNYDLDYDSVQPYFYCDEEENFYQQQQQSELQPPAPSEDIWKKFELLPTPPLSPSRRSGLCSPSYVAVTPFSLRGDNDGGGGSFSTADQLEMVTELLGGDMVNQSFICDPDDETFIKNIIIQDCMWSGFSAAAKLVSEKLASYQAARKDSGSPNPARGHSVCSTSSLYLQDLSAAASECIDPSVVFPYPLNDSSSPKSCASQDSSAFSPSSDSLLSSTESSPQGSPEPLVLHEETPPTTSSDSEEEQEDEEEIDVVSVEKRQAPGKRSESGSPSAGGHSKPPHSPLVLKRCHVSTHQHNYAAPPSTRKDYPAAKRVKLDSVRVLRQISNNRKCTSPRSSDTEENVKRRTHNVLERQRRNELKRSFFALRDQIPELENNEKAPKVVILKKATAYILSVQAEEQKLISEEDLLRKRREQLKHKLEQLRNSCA
T3 sequence (P61244 whole entry): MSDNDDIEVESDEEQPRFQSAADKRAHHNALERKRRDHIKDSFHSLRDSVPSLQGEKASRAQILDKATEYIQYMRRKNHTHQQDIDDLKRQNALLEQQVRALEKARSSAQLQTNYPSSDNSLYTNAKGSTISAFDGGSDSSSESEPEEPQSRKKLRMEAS

IC50 [2]	IC50 [3]	IC50 ([4]; Homo sapiens, HL-60, MTT assay)	IC50 HL60 ([4]; MTT assay)	IC50 Daudi [5]	IC50 ([5]; Homo sapiens, Daudi)	IC50 [2, 8]	c-Myc-Max inhibitory potency relative to 10074-G5 ([2]; EMSA)	inhibition at 100 µM ([2]; Table 10, 100 μM small-molecule, EMSA)	IC50 ([4]; MTT assay)	IC50 [5]	inhibition at 100 µM ([2]; Table 11, 100 uM, EMSA)	Structure (SMILES)	disruption of c-Myc-Max dimerization in cells (co-IP) [1]	selectivity for Myc-Max heterodimers over Max-Max homodimers ([2]; EMSA)	cell cycle arrest, cells in G0/G1 [6]	inhibition of luciferase reporter under c-Myc-responsive vs NF-κB-responsive promoter [7]
												O=C(OCC(F)(F)F)c1ccc(Nc2ccc([N+](=O)[O-])c3nonc23)cc1 [Compound 3jc91-7, Trifluoroethyl 4-((7-nitrobenzo[c][1,2,5]oxadiazol-4-yl)amino)benzoate]	inhibit c-Myc-Max dimerization in cells			
30 µM	> 50 µM	9.2 ± 0.78 µM	single-digit micromolar	single-digit micromolar	2.5 ± 0.05 µM							O=C(Oc1ccccc1)c1ccc(Nc2ccc([N+](=O)[O-])c3nonc23)cc1 [SF-4-017, Phenyl 4-((7-nitrobenzo[c][1,2,5]oxadiazol-4-yl)amino)benzoate]	inhibit c-Myc-Max dimerization in cells			
	60.6 µM	3.8 µM	single-digit micromolar	single-digit micromolar	1.3 µM	34.8 µM	approximately five-fold improvement	94%	3.5 ± 0.54 µM	1.28 ± 0.73 µM		COC(=O)c1ccc(Nc2ccc([N+](=O)[O-])c3nonc23)c(-c2ccc(C)cc2)c1 [Compound 3jc48-3, Methyl 4′-methyl-6-((7-nitrobenzo[c][1,2,5]oxadiazol-4-yl)amino)-[1,1′-biphenyl]-3-carboxylate]	capable of disrupting c-Myc-Max dimerization within cells	about two-fold selective; also recorded: two-fold selectivity	blocking progression of the cell cycle beyond the G0/G1 phase; also recorded: dose-dependently increased the percentage of HL60 cells in the G0/G1 stage	selectively inhibits the expression of the luciferase gene under the control of a c-Myc promoter; also recorded: selectively inhibited the c-Myc-driven gene
	> 100 µM	> 100 µM	inactive	inactive	> 100 µM	84 µM	nearly two-fold more potent				≥ 33%	O=C(O)c1cc([N+](=O)[O-])ccc1Nc1ccccc1-c1ccccc1 [SF-3-103B, 2-([1,1′-biphenyl]-2-ylamino)-5-nitrobenzoic acid]				
